Experimental data as given in patent publication US20220040086A1, “FORMULATION AND AEROSOL CANISTERS, INHALERS, AND THE LIKE CONTAINING THE FORMULATION” (KINDEVA DRUG DELIVERY L.P., priority 2018, published 2022).

How the values were obtained:
[1] = general statement
Text: The two formulations were examined by microscope after 2 and 4 weeks storage at ambient temperature and humidity. Each vial was sprayed onto a microscope slide via a standard 3M MK6 actuator.

[2] = Differential scanning calorimetry thermogram; type: physicochemical; settings: DSC thermogram
Text: Ipratropium, in particular ipratropium bromide, is commercially available as a hydrate, and more particularly as the monohydrate. Dehydration of hydrated ipratropium, in particular ipratropium bromide monohydrate, can be achieved by any suitable method. […] A particularly suitable method is heating the particulate ipratropium, in particular ipratropium bromide monohydrate, in a drying oven for a period of time. The drying oven can be heated to a temperature high enough to remove the water. […] Useful oven temperatures at ambient pressure include at least 100° C., at least 110° C., at least 120° C., at least 125° C., no greater than 240° C., no greater than 230° C., no greater than 225° C., between 100° C. and 240° C., between 110° C. and 230° C., between 120° C. and 220° C., between 125° C. and 215° C., or more particularly about 125° C. The use of pressures less than ambient pressure, such as in a vacuum oven, can be useful in reducing the temperature for dehydration. The time necessary to dehydrate the particulate ipratropium, in particular ipratropium bromide monohydrate, is the amount of time it takes to remove the desired amount of water from the particulate ipratropium. If the amount of water in a sample of particulate ipratropium is known, complete dehydration is complete when the mass of the remaining ipratropium is essentially anhydrous ipratropium. […]

[3] = 50 mg in 2 g Malvern dispersant (lecithin in isooctane), sonicated 3 minutes
[4] = Rehydration of anhydrous ipratropium bromide (sample weight over time); type: physicochemical
Method: The weight of the powder after heating was 9.563 g. The sample was weighed every 10 minutes for 90 minutes and then left over the weekend at 24° C. and 30% humidity.
The sample was then placed in a desiccator for 24 hours and weighed again.

[5] = 30 mg in 30 mL 2H,3H-decafluoropentane, sonic probe 1 minute
Method: 30 mg of the resulting anhydrous ipratropium bromide was added to a glass sample jar followed by 30 mL of 2H,3H-decafluoropentane.

CC(C)[N+]1(C)[C@@H]2CC[C@H]1CC(OC(=O)C(CO)c1ccccc1)C2.[Br-] (stereo partly shown) [anhydrous micronized ipratropium bromide]
stability when formulated in a HFA propellant [1]: stable

CC(C)[N+]1(C)[C@@H]2CC[C@H]1C[C@@H](OC(=O)C(CO)c1ccccc1)C2.O.[Br-] (stereo partly shown) [ipratropium bromide monohydrate]
degradation temperature [2]: approximately 240 °C | water loss starting temperature [2]: approximately 100 °C

CC(C)[N+]1(C)[C@@H]2CC[C@H]1CC(OC(=O)C(CO)c1ccccc1)C2.[Br-] (stereo partly shown) [anhydrous ipratropium bromide]
agglomerates under a microscope [3]: essentially free of agglomerates | dispersion appearance [3]: dispersed satisfactorily | Sample weight ([4]; 10 mins): 9.597 g | Sample weight ([4]; 20 mins): 9.600 g | Sample weight ([4]; 30 mins): 9.601 g | Sample weight ([4]; 40 mins): 9.602 g | Sample weight ([4]; 50 mins): 9.603 g | Sample weight ([4]; 60 mins): 9.603 g | Sample weight ([4]; 70 mins): 9.602 g | Sample weight ([4]; 80 mins): 9.602 g | Sample weight ([4]; 90 mins): 9.603 g | Sample weight ([4]; 2.5 days at 24° C. and 30% humidity): 9.606 g | weight decrease relative to unmicronized ipratropium bromide monohydrate starting material ([4]; after 2.5 days at 24° C. and 30% humidity (9.606 g)): 3.94% | Sample weight ([4]; after a further 24 hours in a desiccator): 9.568 g | weight loss relative to unmicronized ipratropium bromide monohydrate starting material ([4]; after a further 24 hours in a desiccator (9.568 g)): 4.14% | agglomeration observed with magnifying glass (x10) [5]: significant agglomeration

CC(C)[N+]1(C)[C@@H]2CC[C@H]1C[C@@H](OC(=O)C(CO)c1ccccc1)C2.O.[Br-] (stereo partly shown) [micronized ipratropium bromide monohydrate]
agglomerates under a microscope [3]: essentially free of agglomerates | dispersion appearance [3]: dispersed satisfactorily | agglomeration observed with magnifying glass (x10) [5]: not
